Assay results reported in PubChem BioAssay AID330 (DTP/NCI, 2004).
“And” between values parts separate entries of the source, which are not always exact repeats. Identical values can stand only once. Toxic doses and inconclusive results are not listed. Bridge positions count the residues as written; N and C are the ends. Square brackets hold non-standard residues; d marks the D form. Peptide text beside a SMILES is read from it. NMeV = CN[CH](C(=O)O)C(C)C; Sar = CNCC(=O)O

Tested on: P388 leukemia ip, CD2F1 mice, survival T/C
Assay: NCI In Vivo Anticancer Drug Screen. Data for tumor model P388 Leukemia (intraperitoneal) in CD2F1 (CDF1) mice
Details: endpoint: median survival time, higher = longer survival
Outline: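 Mice carrying the transplanted tumor received test compound or vehicle. Survival was recorded in each group, and the value is the treated-group measurement divided by that of the vehicle-treated control group.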

[1] = dose: 60.0 mg/kg/injection, schedule: Q01DX005 (ip), vehicle: Klucel (hydroxypropylcellulose) (HPC)
[2] = dose: 120.0 mg/kg/injection, schedule: Q01DX005 (ip), vehicle: Klucel (hydroxypropylcellulose) (HPC)
[3] = dose: 240.0 mg/kg/injection, schedule: Q01DX005 (ip), vehicle: Klucel (hydroxypropylcellulose) (HPC)
[4] = dose: 50.0 mg/kg/injection, schedule: Q01DX009 (ip), vehicle: saline
[5] = dose: 100.0 mg/kg/injection, schedule: Q01DX009 (ip), vehicle: saline
[6] = dose: 200.0 mg/kg/injection, schedule: Q01DX009 (ip), vehicle: saline
[7] = dose: 50.0 mg/kg/injection, schedule: Q01DX009 (ip), vehicle: saline with Tween-80
[8] = dose: 100.0 mg/kg/injection, schedule: Q01DX009 (ip), vehicle: saline with Tween-80
[9] = dose: 200.0 mg/kg/injection, schedule: Q01DX009 (ip), vehicle: saline with Tween-80
[10] = dose: 100.0 mg/kg/injection, schedule: Q04DX003 (ip), vehicle: saline with Tween-80
[11] = dose: 200.0 mg/kg/injection, schedule: Q04DX003 (ip), vehicle: saline with Tween-80
[12] = dose: 60.0 mg/kg/injection, schedule: Q01DX005 (ip), vehicle: saline
[13] = dose: 120.0 mg/kg/injection, schedule: Q01DX005 (ip), vehicle: saline
[14] = dose: 240.0 mg/kg/injection, schedule: Q01DX005 (ip), vehicle: saline

In the case of CC(=O)C(C(=O)CCSCC(N)C(=O)O)C(SCC(N)C(=O)O)c1ccc(Cl)c(Cl)c1 (stereo not given), the T/C (dose: 50.0 mg/kg/injection, schedule: Q01DX005 (ip), vehicle: saline) is reported as 103 % of control, the T/C (dose: 100.0 mg/kg/injection, schedule: Q01DX005 (ip), vehicle: saline) is reported as 103 % of control and the T/C (dose: 200.0 mg/kg/injection, schedule: Q01DX005 (ip), vehicle: saline) is reported as 102 % of control.
In the case of O=c1[nH]cc(NS(=O)(=O)c2ccc([N+](=O)[O-])cc2)c(=O)[nH]1, the T/C [1] is reported as 101 % of control, the T/C [2] is reported as 103 % of control and the T/C [3] is reported as 108 % of control.
CSc1nc(N)nc2c1ncn2C1CC(O)C(CO)O1 (stereo not given) was tested, and the T/C (dose: 50.0 mg/kg/injection, schedule: Q04DX003 (ip), vehicle: Klucel (hydroxypropylcellulose) (HPC)) was 94 % of control, the T/C (dose: 100.0 mg/kg/injection, schedule: Q04DX003 (ip), vehicle: Klucel (hydroxypropylcellulose) (HPC)) was 100 % of control and the T/C (dose: 200.0 mg/kg/injection, schedule: Q04DX003 (ip), vehicle: Klucel (hydroxypropylcellulose) (HPC)) was 107 % of control. The T/C (dose: 400.0 mg/kg/injection, schedule: Q04DX003 (ip), vehicle: Klucel (hydroxypropylcellulose) (HPC)) was 106 % of control.
With O=C1CCCCc2ccc(O)cc21 the T/C (dose: 100.0 mg/kg/injection, schedule: Q01DX009 (ip), vehicle: gum acacia) was 104 % of control, the T/C (dose: 200.0 mg/kg/injection, schedule: Q01DX009 (ip), vehicle: gum acacia) was 102 % of control and the T/C (dose: 400.0 mg/kg/injection, schedule: Q01DX009 (ip), vehicle: gum acacia) was 110 % of control.
In the case of CCNC1=C(C(=O)c2ccccc2)CCC1, the T/C [4] is reported as 109 % of control, the T/C [5] is reported as 104 % of control and the T/C [6] is reported as 109 % of control.
CC1(C)NNC(=S)NN1 was tested, and the T/C (dose: 7.5 mg/kg/injection, schedule: Q01DX005 (ip), vehicle: saline with Tween-80) was 103 % of control and the T/C (dose: 15.0 mg/kg/injection, schedule: Q01DX005 (ip), vehicle: saline with Tween-80) was 104 % of control.
With CN1CCCC(C(O)c2ccccc2)S1(=O)=O (stereo not given) the T/C [7] was 96 % of control, the T/C [8] was 96 % of control and the T/C [9] was 101 % of control.
For Cc1csc2ccccc12, the T/C [7] was 102 % of control, the T/C (dose: 60.0 mg/kg/injection, schedule: Q01DX005 (ip), vehicle: saline with Tween-80) was 101 % of control and the T/C [8] was 119 % of control. For the same compound, the T/C (dose: 120.0 mg/kg/injection, schedule: Q01DX005 (ip), vehicle: saline with Tween-80) was 100 % of control, the T/C [9] was 92 % of control and the T/C (dose: 240.0 mg/kg/injection, schedule: Q01DX005 (ip), vehicle: saline with Tween-80) was 100 % of control.
In the case of C/C(=N\NC(=O)CCl)C(C)(C)C, the T/C (dose: 25.0 mg/kg/injection, schedule: Q01DX009 (ip), vehicle: saline) is reported as 111 % of control, the T/C [4] is reported as 109 % of control and the T/C [5] is reported as 103 % of control.
In the case of CC(C)C1NC(=O)C(N)C(C)OC(=O)C(C(C)C)N(C)C(=O)CN(C)C(=O)C2CCCN2C1=O (stereo not given) (tested in a mixture with another compound) (H-TVP[Sar][NMeV]; ester 1-C; configuration not given here), the T/C (dose: 15.0 micrograms/kg/injection, schedule: Q01DX009 (ip), vehicle: water) is reported as 163 % of control, the T/C (dose: 31.0 micrograms/kg/injection, schedule: Q01DX009 (ip), vehicle: water) is reported as 159 % of control and the T/C (dose: 62.0 micrograms/kg/injection, schedule: Q01DX009 (ip), vehicle: water) is reported as 164 % of control. For the same compound, the T/C (dose: 110.0 micrograms/kg/injection, schedule: Q01DX009 (ip), vehicle: other) was 200 % of control, the T/C (dose: 125.0 micrograms/kg/injection, schedule: Q01DX009 (ip), vehicle: water) was 179 % of control and the T/C (dose: 165.0 micrograms/kg/injection, schedule: Q01DX009 (ip), vehicle: other) was 254 % of control. The T/C (dose: 250.0 micrograms/kg/injection, schedule: Q01DX009 (ip), vehicle: other) was 180 % of control and the T/C (dose: 250.0 micrograms/kg/injection, schedule: Q01DX009 (ip), vehicle: water) was 225 % of control.
In the case of N#Cc1cc2ccncc2c2ccccc12, the T/C (dose: 25.0 mg/kg/injection, schedule: Q01DX009 (ip), vehicle: saline with Tween-80) is reported as 90 % of control, the T/C [7] is reported as 93 % of control and 95 % of control and the T/C [8] is reported as 98 % of control. For the same compound, the T/C [9] was 106 % of control and 89 % of control and the T/C (dose: 400.0 mg/kg/injection, schedule: Q01DX009 (ip), vehicle: saline with Tween-80) was 114 % of control.
In the case of CC(C)N1CCN(c2ccc(OCC3COC(Cn4cncn4)(c4ccc(Cl)cc4Cl)O3)cc2)CC1 (stereo not given), the T/C (dose: 50.0 mg/kg/injection, schedule: Q01DX005 (ip), vehicle: Klucel (hydroxypropylcellulose) (HPC)) is reported as 100 % of control and the T/C (dose: 100.0 mg/kg/injection, schedule: Q01DX005 (ip), vehicle: Klucel (hydroxypropylcellulose) (HPC)) is reported as 101 % of control.
In the case of Cn1cc/c(=N\N=c2/ccn(C)c3ccccc23)c2ccccc21, the T/C (dose: 25.0 mg/kg/injection, schedule: Q04DX002 (ip), vehicle: saline) is reported as 101 % of control, the T/C (dose: 50.0 mg/kg/injection, schedule: Q04DX002 (ip), vehicle: saline) is reported as 104 % of control and the T/C (dose: 100.0 mg/kg/injection, schedule: Q04DX002 (ip), vehicle: saline) is reported as 99 % of control and 103 % of control.
In the case of CN(C)c1ccc2c(c1)Oc1cc(N(C)C)ccc1C21c2ccccc2C(=O)N1N, the T/C (dose: 100.0 mg/kg/injection, schedule: Q04DX002 (ip), vehicle: saline with Tween-80) is reported as 100 % of control, the T/C (dose: 200.0 mg/kg/injection, schedule: Q04DX002 (ip), vehicle: saline with Tween-80) is reported as 90 % of control and the T/C (dose: 400.0 mg/kg/injection, schedule: Q04DX002 (ip), vehicle: saline with Tween-80) is reported as 90 % of control.
In the case of CC1(CC(=O)O)OC(c2ccccc2)=CC1=O (stereo not given), the T/C (dose: 100.0 mg/kg/injection, schedule: Q01DX001 (ip), vehicle: Klucel (hydroxypropylcellulose) (HPC)) is reported as 98 % of control, the T/C (dose: 200.0 mg/kg/injection, schedule: Q01DX001 (ip), vehicle: Klucel (hydroxypropylcellulose) (HPC)) is reported as 92 % of control and the T/C (dose: 400.0 mg/kg/injection, schedule: Q01DX001 (ip), vehicle: Klucel (hydroxypropylcellulose) (HPC)) is reported as 92 % of control.
For Cn1c(=O)c2[nH]c(-c3c[nH]c4ccccc34)nc2n(C)c1=O, the T/C [10] was 89 % of control, the T/C [11] was 89 % of control and the T/C (dose: 400.0 mg/kg/injection, schedule: Q04DX003 (ip), vehicle: saline with Tween-80) was 86 % of control.
In the case of O=C(O)c1ccc(O)c(O)c1, the T/C [4] is reported as 104 % of control and 111 % of control, the T/C [5] is reported as 100 % of control and 103 % of control and the T/C [6] is reported as 103 % of control and 98 % of control. The T/C (dose: 400.0 mg/kg/injection, schedule: Q01DX009 (ip), vehicle: saline) was 103 % of control and 118 % of control and the T/C (dose: 600.0 mg/kg/injection, schedule: Q01DX009 (ip), vehicle: saline) was 100 % of control.
C=CCc1ccccc1C was tested, and the T/C [8] was 109 % of control and the T/C [9] was 101 % of control.
With COP(=O)(CC(=O)CCCCC1OCCO1)OC the T/C [12] was 110 % of control, the T/C [13] was 105 % of control and the T/C [14] was 100 % of control.
With COc1ccc(-c2oc3cc(OC)c(OC)c(OC)c3c(=O)c2O)cc1O the T/C (dose: 25.0 mg/kg/injection, schedule: Q04DX003 (ip), vehicle: saline with Tween-80) was 87 % of control, the T/C (dose: 50.0 mg/kg/injection, schedule: Q04DX003 (ip), vehicle: saline with Tween-80) was 105 % of control and the T/C [10] was 97 % of control. The T/C [11] was 99 % of control.
O=S1(=O)c2ccccc2C(O)(c2ccccc2)c2cc3ccccc3n21 (stereo not given) was tested, and the T/C [7] was 93 % of control, the T/C [8] was 96 % of control and the T/C [9] was 92 % of control.
For CS(=O)(=O)OCCCCCCCCCCCCCC1C=CCC1 (stereo not given), the T/C (dose: 100.0 mg/kg/injection, schedule: Q04DX003 (ip), vehicle: saline) was 99 % of control, the T/C (dose: 200.0 mg/kg/injection, schedule: Q04DX003 (ip), vehicle: saline) was 103 % of control and the T/C (dose: 400.0 mg/kg/injection, schedule: Q04DX003 (ip), vehicle: saline) was 99 % of control.
COC(=O)c1nnn(-c2ccc(S(N)(=O)=O)cc2)c1N was tested, and the T/C [12] was 98 % of control, the T/C [13] was 104 % of control and the T/C [14] was 98 % of control.
For CCOC(=O)C(C)(C)S(=O)Nc1ccccc1 (stereo not given), the T/C [1] was 99 % of control, the T/C [2] was 99 % of control and the T/C [3] was 102 % of control.
For CCNC(=O)N(Cc1ccccc1)Cc1ccccc1, the T/C (dose: 12.5 mg/kg/injection, schedule: Q01DX009 (ip), vehicle: other) was 114 % of control, the T/C (dose: 25.0 mg/kg/injection, schedule: Q01DX009 (ip), vehicle: other) was 112 % of control and the T/C (dose: 50.0 mg/kg/injection, schedule: Q01DX009 (ip), vehicle: other) was 104 % of control. The T/C (dose: 100.0 mg/kg/injection, schedule: Q01DX009 (ip), vehicle: other) was 118 % of control.
In the case of CC/C(=C(/CC)c1ccc(OC(=O)N(CCCl)CCCl)cc1)c1ccc(OC(=O)N(CCCl)CCCl)cc1, the T/C [4] is reported as 97 % of control, the T/C [5] is reported as 99 % of control and the T/C [6] is reported as 99 % of control.
